The subject of data set [1] is ExoS translocation from P. aeruginosa Pa388 into HEp-2 cells. The data set is classed as cell-based.
In data set [2] the test system is YopE translocation into HEp-2 cells. The data set is classed as cell-based, Y. pseudotuberculosis. The conditions noted are these: 60 μM compound; HEp-2 cells infected with Yptb, 45 minutes.
The subject of data set [3] is YopE translocation into the cytosol of HEp-2 cells. The data set is classed as cell-based, Y. pseudotuberculosis. The conditions noted are these: 60 μM compound, compared to DMSO control.
For data set [4], the system named is YopE leaked into culture supernatants. The data set is classed as cell-based, Y. pseudotuberculosis. The settings on record: 60 μM compound, HEp-2 cells infected with WT Yptb, compared to DMSO.
Another data set relates to Yptb WT IP2666. The data set is classed as cell-based, Y. pseudotuberculosis. The conditions noted are these: 60 μM compound, 26 C, 7 hrs.
The subject of data set [5] is YscF polymer (TTSS needle). On the set-up: species or system Y. pseudotuberculosis. The conditions noted are these: 60 μM compound, 1 mM BS3, Western blot with α-YscF. (In general: In western blotting, separated proteins are transferred to a membrane and probed.)
Another data set deals with HEp-2 cells. The data set is described as follows: LDH release assay. The settings on record: 60 μM compound, absence of Yptb. The data set is classed as cell-based. As to the method:
Compounds were resuspended in RPMI supplemented with 5% FBS to a final concentration of 60 μM. Media was replaced with a volume of 100 μL and cells were incubated at 37 C and 5% CO2. A 50 μL sample was taken from the wells at 2 hrs and 24 hrs for quantification of LDH. LDH in supernatants was quantified using the Promega Cytotox 96 Non-Radioactive Cytotoxicity Assay Kit. Control samples for lysis in the absence of compounds were incubated for 45 minutes in Lysis Buffer (supplied in the kit) then collected at the same time points. The OD at 492 nm was measured spectrophotometrically on a SpectraMax 5 plate reader (Molecular Devices, Sunnyvale, Calif.).
The remaining 12 compounds were evaluated for toxicity to either Yptb or HEp-2 cells. […] The 9 non-antibacterial compounds were assessed for their ability to cause damage to epithelial cells by monitoring the release of lactate dehydrogenase (LDH), a cytoplasmic enzyme whose presence in cell supernatants indicates membrane damage. HEp-2 cells were incubated with 60 μM of each compound, in the absence of Yptb. Tissue culture supernatants were collected after 2 or 24 hours and assessed for LDH levels. […] In contrast, C35 had above baseline LDH release levels at 2 hours and this effect was exacerbated at 24 hours (FIG. 3B). […] Because of the high-level of toxicity caused by C35 at both time points, it was excluded from further characterization. In all subsequent experiments with the remaining 8 compounds, HEp-2 cells were exposed to compounds for 2 hours or less.

The subject of data set [6] is Sheep red blood cells infected with Yptb. The data set is classed as cell-based.
Data set [7] deals with adherence of Yptb to HEp-2 cells. The data set is classed as cell-based, Y. pseudotuberculosis.
Data set [8] deals with YadA-mediated autoagglutination. The data set is classed as cell-based, Y. pseudotuberculosis. The settings on record: 60 μM C20, 3 hrs at 37 C.
The subject of a further data set is YscF. The data set is classed as cell-based, Y. pseudotuberculosis. The conditions noted are these: 60 μM compound, 5 mM CaCl2, 37 C, 1.5 hours.
The subject of the next data set is Yop secretion. The data set is classed as cell-based, Y. pseudotuberculosis. The settings on record: 60 μM compound, secretion media (absence of calcium), 37 C.
The test system of data set [9] is V. cholerae. The settings on record: mouse, in vivo; cited from earlier work.
Data set [10] has as its system V. cholerae. The settings on record: cited from earlier work.

The text below walks through data of patent US20110319398A1 (priority 2010, published 2011).

With `CCOc1ccc(NC(=O)c2cnccn2)cc1` [Compound C7, N-(4-ethoxyphenyl)pyrazine-2-carboxamide], the ExoS-dependent cell rounding entry in [1] is on record as “little or no effect”. In data set [2], the “Inhibition of YopE-mediated cell rounding” value is “cell-rounding defect was weak”. The “YopE translocation into HEp-2 cells” value in data set [3] is on record as “did not inhibit translocation of YopE”. Further, the “YopE/Yop leakage into culture supernatants” value in [4] was “significant leakage”. The “Effect on bacterial growth (OD600)” value with Yptb WT IP2666 is reported as “no effect on bacterial growth”.

As to `O=C1NC2=C(C(=O)c3ccccc32)C(c2ccccc2)S1` (centres unmarked) [Compound C15, 4-phenyl-1,4-dihydroindeno[1,2-d][1,3]thiazine-2,5-dione], the ExoS-dependent cell rounding result in data set [1] was “little or no effect”. For the same compound, in data set [5], the “YscF cross-linking pattern (dimer crosslink)” value (“YscF cross-linking pattern” for short) is listed as “weaker dimer crosslink”. In the data set on HEp-2 cells (2 hours), the “LDH release at 2 hours” value is listed as “elevated LDH release”. Moreover, the “LDH release at 24 hours” value in the data set on HEp-2 cells was “did not cause further membrane damage”. In addition, the “YopE/Yop leakage into culture supernatants” value in [4] is “significant leakage”. For the same compound, in the data set on Yptb WT IP2666, the “Effect on bacterial growth (OD600)” value is reported as “no effect on bacterial growth”.

For the compound `O=C(c1coc2nc3ccccc3nc12)N1CCN(c2ccccc2)CC1` [Compound C19, furo[3,2-b]quinoxalin-3-yl-(4-phenylpiperazin-1-yl)methanone], the ExoS-dependent cell rounding entry in data set [1] was “little or no effect”. Also, the “YopE/Yop leakage into culture supernatants” value in data set [4] is “significant leakage”. In addition, in the data set with Yptb WT IP2666, the “Effect on bacterial growth (OD600)” value was “no effect on bacterial growth”.

As for `Cc1nn(-c2ccccc2)c(C)c1/N=C/c1c(O)ccc2ccccc12` [Compound C20, 1-[(E)-(3,5-dimethyl-1-phenyl-pyrazol-4-yl)iminomethyl]naphthalen-2-ol], in data set [6], the “Hemolysis (leakage of hemoglobin) of SRBCs infected with Yptb” value is “slightly reduced leakage of hemoglobin”. Further, the ExoS-dependent cell rounding result in data set [1] is given as “reduced cell-rounding”. Moreover, in [7], the “Binding of Invasin-deleted (Δinv) Yptb to HEp-2 cells” value is on record as “did not block the ability of C20 to further inhibit binding”. Also, the “Binding of Yptb to HEp-2 cells, of the levels of the DMSO-treated control” value in [7] (60 μM compound, WT Yptb, ELISA) is reported as 15-20%. The “YscF cross-linking pattern” value in data set [5] is given as “weaker dimer crosslink”. Also, in data set [8], the “Autoagglutination activity of Yptb” value is “unaffected”. In addition, in the data set with HEp-2 cells, the “LDH release at 24 hours” value was “slightly elevated LDH release”. Besides, the “YopE/Yop leakage into culture supernatants” value in [4] is “elevated levels of Yop leakage”. The “Effect on bacterial growth (OD600)” value in the data set on Yptb WT IP2666 was “no effect on bacterial growth”.

With `c1ccc2c(-c3csc(-c4ccncc4)n3)c[nH]c2c1` [Compound C24, 4-(1H-indol-3-yl)-2-(4-pyridyl)thiazole], the ExoS-dependent cell rounding result in [1] was “reduced cell-rounding”. Also, in the data set with YscF, the “Surface YscF staining” value is “reduced”. Also, in the data set on HEp-2 cells, the “LDH release at 24 hours” value is listed as “slightly elevated LDH release”. For the same compound, in data set [4], the “YopE/Yop leakage into culture supernatants” value is recorded as “significant leakage”. Besides, the “Effect on bacterial growth (OD600)” value in the data set on Yptb WT IP2666 was “no effect on bacterial growth”.

With `Cc1ccc(NC(=O)Nc2cc3c(cc2N2CCCC2)n(C)c(=O)n3C)cc1C` [Compound C34, 1-(1,3-dimethyl-2-oxo-6-pyrrolidin-1-yl-benzimidazol-5-yl)-3-(3,4-dimethylphenyl)urea], the ExoS-dependent cell rounding entry in [1] is given as “reduced cell-rounding”. Besides, in data set [2], the “Inhibition of YopE-mediated cell rounding” value is listed as “potent inhibitor of cell-rounding”. Besides, the “Ability to secrete Yops” value in the data set with Yop secretion is “secreted less, but detectable levels of Yops”. Besides, the “YscF cross-linking pattern” value in data set [5] is on record as “consistently weaker”. Also, the “YopE translocation into HEp-2 cells” value in data set [3] is “did not inhibit translocation of YopE”. In data set [4], the “YopE/Yop leakage into culture supernatants” value is recorded as “elevated levels of Yop leakage”. For the same compound, the “Effect on bacterial growth (OD600)” value in the data set on Yptb WT IP2666 is recorded as “no effect on bacterial growth”.

Consider `Cc1ccc(C2=N/C(=C/Nc3ccc4c(c3)OCCO4)C(=O)O2)cc1` [Compound C38, (4E)-4-[(2,3-dihydro-1,4-benzodioxin-6-ylamino)methylene]-2-(p-tolyl)oxazol-5-one], for which the ExoS-dependent cell rounding entry in [1] is given as “reduced cell-rounding”. Also, in the data set on YscF, the “Surface YscF staining” value was “reduced”. Further, in data set [4], the “YopE/Yop leakage into culture supernatants” value is given as “elevated levels of Yop leakage”. Besides, the “Effect on bacterial growth (OD600)” value in the data set with Yptb WT IP2666 is recorded as “no effect on bacterial growth”.

As for `O=C(O)CCCN1C(=O)c2cccc3cccc(c23)C1=O` [Virstatin], in the data set on V. cholerae [9], the “Bacterial burden on mice infected with V. cholerae” value was “reduces the bacterial burden”. In addition, the “Effects on bacterial growth” value in the data set with V. cholerae [10] is given as “without deleterious effects on bacterial growth”.
